Laboratory results reported in patent US20200315176A1, “FUNGICIDAL COMPOSITIONS” (SYNGENTA PARTICIPATIONS AG, priority 2017, published 2020).

Experiments:
Phakopsora pachrhizi = test: Example A3: fungicidal activity against Phakopsora pachrhizi / soybean / leaf disc preventative (Asian soybean rust); type: in vivo; conditions: Phakopsora pachyrhizi, foliar, 200 ppm in the applied formulation, soybean leaf disks, read-out: disease control
Protocol: (§1) Leaf disks or leaf segments of various plant species are cut from plants grown in a greenhouse. The cut leaf disks or segments are placed in multiwell plates (24-well format) onto water agar. The leaf disks are sprayed with a test solution before (preventative) or after (curative) inoculation. Compounds to be tested are prepared as DMSO solutions (max. 10 mg/mL) which are diluted to the appropriate concentration with 0.025% Tween20 just before spraying. The inoculated leaf disks or segments are incubated under defined conditions (temperature, relative humidity, light, etc.) according to the respective test system. A single evaluation of disease level is carried out 3 to 14 days after inoculation, depending on the pathosystem. Percent disease control relative to the untreated check leaf disks or segments is then calculated.
Soybean leaf disks are placed on water agar in multiwell plates (24-well format) and sprayed with the formulated test compound diluted in water. One day after application leaf discs are inoculated by spraying a spore suspension on the lower leaf surface. After an incubation period in a climate cabinet of 24-36 hours in darkness at 20° C. and 75% rh leaf disc are kept at 20° C. with 12 h light/day and 75% rh. The activity of a compound is assessed as percent disease control compared to untreated when an appropriate level of disease damage appears in untreated check leaf disks (12 to 14 days after application).

[1] = tested on: Puccinia recondita f. sp. tritici; test: Example A1: fungicidal activity against Puccinia recondita f. sp. tritici / wheat / leaf disc preventative (brown rust); type: in vivo; conditions: foliar, 200 ppm in the applied formulation, wheat leaf segments, compared to untreated, read-out: disease control
Protocol: as §1
Wheat leaf segments cv. Kanzler were placed on agar in multiwell plates (24-well format) and sprayed with the formulated test compound diluted in water. The leaf disks were inoculated with a spore suspension of the fungus 1 day after application. The inoculated leaf segments were incubated at 19° C. and 75% relative humidity (rh) under a light regime of 12 hours light/12 hours darkness in a climate cabinet and the activity of a compound was assessed as percent disease control compared to untreated when an appropriate level of disease damage appears in untreated check leaf segments (7 to 9 days after application).

[2] = tested on: Puccinia recondita f. sp. tritici; test: Example A2: fungicidal activity against Puccinia recondita f. sp. tritici / wheat / leaf disc curative (brown rust); type: in vivo; conditions: foliar, 24 h, 200 ppm in the applied formulation, curative (applied 1 day after inoculation), wheat leaf segments, read-out: disease control
Protocol: as §1
Wheat leaf segments cv. Kanzler are placed on agar in multiwell plates (24-well format). The leaf segments are then inoculated with a spore suspension of the fungus. Plates were stored in darkness at 19° C. and 75% relative humidity. The formulated test compound diluted in water was applied 1 day after inoculation. The leaf segments were incubated at 19° C. and 75% relative humidity under a light regime of 12 hours light/12 hours darkness in a climate cabinet and the activity of a compound was assessed as percent disease control compared to untreated when an appropriate level of disease damage appears in untreated check leaf segments (6 to 8 days after application).

[3] = tested on: Glomerella lagenarium (Colletotrichum lagenarium); test: Example A4: fungicidal activity against Glomerella lagenarium (Colletotrichum lagenarium) liquid culture / cucumber / preventative (anthracnose); type: cell-based; conditions: Colletotrichum orbiculare, 20 ppm in the applied formulation, growth measured photometrically 3 to 4 days after application, read-out: disease control
Protocol: Mycelia fragments or conidia suspensions of a fungus prepared either freshly from liquid cultures of the fungus or from cryogenic storage, are directly mixed into nutrient broth. DMSO solutions of the test compound (max. 10 mg/mL) are diluted with 0.025% Tween20 by a factor of 50 and 10 μL of this solution is pipetted into a microtiter plate (96-well format). The nutrient broth containing the fungal spores/mycelia fragments is then added to give an end concentration of the tested compound. The test plates are incubated in the dark at 24° C. and 96% relative humidity. The inhibition of fungal growth is determined photometrically after 2 to 7 days, depending on the pathosystem, and percent antifungal activity relative to the untreated check is calculated. Conidia of the fungus from cryogenic storage are directly mixed into nutrient broth (PDB—potato dextrose broth). After placing a (DMSO) solution of test compound into a microtiter plate (96-well format), the nutrient broth containing the fungal spores is added.

melting point [°C] | Structure (SMILES) | pest or weed control at 200 ppm (Phakopsora pachrhizi) [%] | pest or weed control at 200 ppm [1] [%] | pest or weed control at 200 ppm [2] [%] | inhibition of growth at 20 ppm [3] [%]
189 to 194 | O=C(NC1CC1)c1cnn(Cc2ccc(-c3noc(C(F)(F)F)n3)cc2)c1 [X.04, N-cyclopropyl-1-[[4-[5-(trifluoromethyl)-1,2,4-oxadiazol-3-yl]phenyl]methyl]pyrazole-4-carboxamide] | ≥ 80 | ≥ 80 | ≥ 80 | ≥ 80
68.2 to 70.1 | FC(F)(F)c1ncn(Cc2ccc(-c3noc(C(F)(F)F)n3)cc2)n1 [X.01, 5-(trifluoromethyl)-3-[4-[[3-(trifluoromethyl)-1,2,4-triazol-1-yl]methyl]phenyl]-1,2,4-oxadiazole] | ≥ 80 | ≥ 80 | ≥ 80 | ≥ 80
